Data taken from patent publication US20240173317A1, “METHODS FOR TREATING PROGRESSIVE FAMILIAL INTRAHEPATIC CHOLESTASIS” (MIRUM PHARMACEUTICALS, INC., priority 2022, published 2024).

Assays:
Format in all cases: in vivo, human
participants with ALGS = assay: ItchRO(Obs) pruritus in participants with ALGS aged 16 years and older
Experimental: All patients received the daily dose appropriate for their weight, with an adult maximum dose of 28.5 mg/d. ^bBefore age 16 years is defined as the last data point prior to turning 16 years of age. After age 16 years is defined as the first data point after turning 16 years of age.
FIGS. 31A and 31B show a change in ltchRO(Obs) (FIG. 31A) and sBA (FIG. 31B) for participants who initiated MRX treatment at <16 years of age (n=11). Of 11 participants, 9 had ItchRO(Obs) scores available for all time points and were included in the analysis. ^bItchRO(Obs) is a 0-4 scale with >1-point reduction considered clinically meaningful. Mean ItchRO(Obs) was rounded to 1 decimal place. Error bars represent SE. Significance was determined using student t test. ^cMean sBA was rounded to the nearest whole number. Error bars represent SE. ^dAverage of last 2 records prior to age 16 years. ^eAverage of first 2 records after age 16 years. ^fAverage of final 2 records.
FIGS. 32A and 32B show a change in ltchRO(Obs) (FIG. 32A) and sBA (FIG. 32B) for participants who Initiated MRX treatment at ≥16 years of age (n=3). ^aItchRO(Obs) is 0-4 scale with ≥1-point reduction considered clinically meaningful. ^bAverage of final two records.
The efficacy and safety of MRX in participants with ALGS aged ≥16 years transitioning to adult care and participant aged ≥16 years who initiate MRX treatment were studied (FIG. 30). […]

subjects with PFIC [1] = assay: EDQ(Obs) sleep disturbance score, MARCH-PFIC Phase 3 study; conditions: All-PFIC; FIG. 27D
Source text: The terms “EDQ(Obs)”, “EDQ(Pt)”, and “EDQ” as used herein, refer to Exploratory Diary Questionnaire that are used to assess pruritus in children under the age of 18 or adults of at least 18 years of age. EDQ is a caregiver/patient reported outcome measure administered as a twice daily electronic diary. EDQ contained a question about sleep related to pruritus: “because of itch, my child had trouble staying asleep. 1—Never, 2—Rarely, 3—ometimes, 4—Often, or 5—Almost Always.” Caregivers for all subjects aged <9 years completed the Observer instrument: EDQ(Obs). Subjects ≥9 years of age completed the patient instrument: EDQ(Pt). EDQ includes questions on sleep disturbances related to pruritus.
Exploratory Diary Questionnaire. Pruritus was assessed using the EDQ caregiver/patient reported outcome measure administered as a twice daily electronic diary. […] Pruritus was assessed and recorded twice daily by subjects or caregivers, via EDQ, beginning with the day after the screening visit and every day throughout the duration of the study, as described in Table 2.
Methods: Participants were randomized to receive MRX 570 μg/kg BID or placebo (PBO) (FIG. 27A). The primary analysis evaluated pruritus as assessed by the caregiver using ItchRO(Obs) 0-4 scale; as well as by physician using the Clinician Scratch Scale (CSS). Sleep was assessed using the Exploratory Diary Questionnaire (Observer) (EDQ[Obs]). […]

[2] = Growth z-scores (height, weight), MARCH-ON long-term extension
Source text: (§1) Eighty-five patients from MARCH trial enrolled in MARCH-ON (Table 10, FIG. 29A). Forty-seven patients had received Maralixibat (MRX-MRX) and 38 had received placebo (PBO-MRX) during MARCH trial.
(§2) PFIC subtypes of patients included in the study were: non-truncated bile salt export pump (nt-B SEP, n=27), familial intrahepatic cholestasis-associated protein type 1 (F1C1, n=13); multidrug-resistance 3 protein (MDR3, n=9); tight junction protein 2 (TJP2, n=6); myosin VB (MYO5B, n=2); heterozygosis (n=2); truncated B SEP (t-B SEP, n=9); variant not found (n=8), fluctuating sBA (n=2); and surgery (n=7). Efficacy analyses included n=33 in the MRX-MRX group and n=24 in the PRO-MRX group. Subtypes nt-BSEP, F1C1, MDR3, TJP2, and MYO5B were included in the efficacy analyses. Baseline was defined as the start of maralixibat (MRX) treatment for each group.
(§3) Methods: Long-term maintenance of response was assessed for patients who were originally randomized to receive MRX in MARCH and continued with treatment in MARCH-ON (MRX-MRX group; n=33). MRX response was assessed for patients who received PBO in the MARCH study and switched to open-label MRX in MARCH-ON (PBO-MRX group; n=24). Assessments included: pruritus measured by 0-4 scale of ItchRO[Obs], sBA, bilirubin, and growth z-scores, as well as incidence of treatment-emergent adverse events(TEAEs). Baseline (BL) was defined as the start of MRX for each group.

subjects with PFIC [3] = assay: Clinician Scratch Scale (CSS) score, MARCH-PFIC Phase 3 study
Source text: Clinician Scratch Scale (CSS). The CSS provides an assessment of itch severity. The clinician's assessment of the subject's pruritus focused on scratching and visible damage to the skin as a result of scratching as observed by the physician. The CSS uses a 5-point scale, in which 0 designates no evidence of scratching and 4 designates cutaneous mutilation with bleeding, hemorrhage and scarring. A clinician's assessment of pruritus made by the principal investigator or sub-investigator using the CSS was recorded at screening, baseline, and at additional study visits as outline in Table 2.
For the PFIC Cohort, PFIC Type is included in the model as an additional covariate.
Clinician Scratch Scale (CSS) was scored on a 0-4 scale, where 0=none and 4=cutaneous mutilations, haemorrage, and scarring (worst scratching).

patients with PFIC = assay: Bilirubin, MARCH-ON long-term extension; conditions: MRX-MRX group; Baseline through Week 52
Source text: as §1, §2
as §3, with “Baseline (BL) was defined as the start of MRX for each group.” left out

[4] = MRX-MRX group (n = 20), Baseline to Week 52
[5] = PBO-MRX group (n = 15), Baseline to Week 26
[6] = BSEP deficiency cohort, FIG. 19A

## CCCCC1(CCCC)CS(=O)(=O)c2ccc(N(C)C)cc2[C@@H](c2ccc(OCc3ccc(C[N+]45CCN(CC4)CC5)cc3)cc2)[C@H]1O [maralixibat, 1-(4-((4-((4R,5R)-3,3-dibutyl-7-(dimethylamino)-4-hydroxy-1,1-dioxido-2,3,4,5-tetrahydrobenzo[b]thiepin-5-yl)phenoxy)methyl)benzyl)-1,4-diazabicyclo[2.2.2]octan-1-ium]
Participants with ALGS; MRX during childhood, maintained into early adulthood, FIG. 31A
  improvements in pruritus (ItchRO(Obs)): significant improvements
Participants with ALGS; participants receiving MRX in early adulthood, FIG. 32A
  improvements in pruritus (ItchRO(Obs)): significant improvements
Subjects with PFIC [1]
  CFB in sleep (EDQ(Obs)), difference MRX vs PBO, delta [95% CI]: significant improvements
[2]; [4]
  Height Z-score, mean change from Baseline: +0.54
  Weight Z-score, mean change from Baseline: +0.44
[2]; [5]
  Height Z-score, mean change from Baseline: +0.46
  Weight Z-score, mean change from Baseline: +0.09
Subjects with PFIC [3]; [6]
  difference in CSS improvement vs placebo group: 1.328 point
  improvement in CSS score relative to baseline: about 1.7 points
Subjects with PFIC [3]; PFIC cohort, FIG. 19B
  difference in CSS improvement vs placebo group: 1.247 point
  improvement in CSS score relative to baseline: about 1.8 points
Patients with PFIC
  bilirubin, change from Baseline: -2.64 mg/dL
